Test results from patent US10894817B2, “Fatty acid modified urocortin-2 analogs for the treatment of diabetes and chronic kidney disease” (priority 2016, dated 2021).
pEC50: −log10 of the molar value. Starred links: 1 amine or outer side, 2 acyl side, 3 side chain; linkers in the order of their positions; H or OH if unused. Residues, ends and D or L forms follow the SMILES beside them. Groups on a side chain read outwards from the residue. *: point of attachment. γGlu = O=C(O)[C@H](CCC(=O)[*:2])N[*:1]; Palmitoyl = CCCCCCCCCCCCCCCC(=O)*; AEEA = NCCOCCOCC(=O)O

Target: T1, human CRHR2b (Homo sapiens, UniProt Q13324)
T1 construct: expressed in transfected cells; host or cells: Chinese Hamster Ovary (CHO) cells, transient transfection
T1 sequence (Q13324 1-438 isoform Q13324-2): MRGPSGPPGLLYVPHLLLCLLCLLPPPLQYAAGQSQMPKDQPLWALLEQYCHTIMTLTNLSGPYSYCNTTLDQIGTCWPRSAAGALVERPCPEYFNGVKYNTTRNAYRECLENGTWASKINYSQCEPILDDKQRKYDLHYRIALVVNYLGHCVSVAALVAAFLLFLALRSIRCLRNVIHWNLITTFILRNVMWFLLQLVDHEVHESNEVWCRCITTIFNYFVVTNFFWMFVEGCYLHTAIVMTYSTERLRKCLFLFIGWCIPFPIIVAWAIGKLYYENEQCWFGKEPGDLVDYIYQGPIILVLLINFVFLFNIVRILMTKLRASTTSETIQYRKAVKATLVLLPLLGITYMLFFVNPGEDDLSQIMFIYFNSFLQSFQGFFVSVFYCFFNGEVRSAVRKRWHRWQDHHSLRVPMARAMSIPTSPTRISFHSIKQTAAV
Assay: human CRHR2b cell-based cAMP assay
Conditions: cAMP assay; Table 26, compounds of Example 9; read-out: hCRHR2b Average EC50
Description: CRHR agonistic activity is measured in a cell-based cAMP assay. Serial dilutions of the test peptides are made in assay buffer containing Hank's Balanced Salt Solution (HBSS, without phenol red) supplemented with 20 mM HEPES and 0.05% lactalbumin enzymatic hydrolysate (LAH) (“assay buffer”). […] A one to three dilution of the test peptides is used in both assays. Receptor over-expressing Chinese Hamster Ovary (CHO) cell line is used for the human CRHR2b assay. […] AF011406.1). Forty-eight hours after the transfection, the cells are centrifuged to remove the culture media and resuspended in fetal bovine serum containing 5% DMSO. They are cryofrozen and stored in vials in liquid nitrogen (20×10^6 cells/ml/vial). On the day of the assay, cells are thawed and resuspended in cold 30 ml culture media supplemented with 20 mM HEPES. The cells are then centrifuged to remove the media and washed once with HBSS supplemented with 20 mM HEPES. Finally, following the last centrifugation, the cells are resuspended in assay buffer. Thirty-thousand cells are used in the human CRHR2b assay for each treatment. The cells are dispensed into Costar 96-well black polystyrene half area EIA/RIA plates (Corning Incorporated, Corning, N.Y.) followed by the addition of the diluted peptides, each at a volume of 20 μL. The agonist induced cAMP levels are detected using a HTRF cAMP Dynamic 2 kit (CisBio, Bedford, Mass.). After incubation at 37° C. for 30 min, the assay is stopped by cell lysis via the addition of 20 μL of d2-labeled cAMP and followed by 20 μL of cryptate-labeled anti-cAMP antibody, as described by the manufacturer. Cellular cAMP (as a result of agonist stimulation) competes with the d2-labeled cAMP for binding to the antibody. HTRF detection is performed on an Envision plate reader (Perkin Elmer Life and Analytical Sciences, Waltham, Mass.) by measuring ratiometric emission at 620 and 665 nm after excitation at 320 nm. The data are converted to picomoles of cAMP using a standard curve obtained from the same assay performed with varying concentrations of unlabeled cAMP. […] The data are analyzed using a Curve Fitting Tool to calculate ED50. Numeric values shown below in Table 1 represent the mean of multiple runs (number of runs shown in parentheses) following the mean value±SEM.

| Structure (SMILES) | pEC50 |
| --- | --- |
| CCCCCCCCCCCCCCCC(=O)N[C@@H](CCC(=O)N[C@@H](CCC(=O)NCCCC[C@H](NC(=O)[C@H](CCC(=O)O)NC(=O)[C@H](CCCCN)NC(=O)[C@H](CCC(=O)O)NC(=O)[C@H](CCC(N)=O)NC(=O)[C@H](CCCCN)NC(=O)[C@H](CCC(=O)O)NC(=O)[C@H](CCC(N)=O)NC(=O)[C@H](CCC(=O)O)NC(=O)[C@H](CC(C)C)NC(=O)[C@H](CC(C)C)NC(=O)[C@@H](NC(=O)[C@H](CCC(N)=O)NC(=O)[C@H](CC(C)C)NC(=O)[C@H](CC(C)C)NC(=O)CNC(=O)[C@@H](NC(=O)[C@@H]1CCCN1C(=O)[C@@H](NC(=O)[C@H](CC(=O)O)NC(=O)[C@H](CC(C)C)NC(=O)[C@H](CO)NC(=O)[C@H](CC(C)C)NC(=O)[C@@H](NC(=O)[C@@H](N)[C@@H](C)CC)C(C)C)C(C)C)[C@@H](C)CC)[C@@H](C)CC)C(=O)N[C@@H](CCC(N)=O)C(=O)N[C@@H](CCC(N)=O)C(=O)N[C@@H](C)C(=O)N[C@H](C(=O)N[C@H](C(=O)N[C@@H](CC(N)=O)C(=O)N[C@@H](C)C(=O)N[C@@H](CCCNC(=N)N)C(=O)N[C@H](C(=O)N[C@@H](CC(C)C)C(=O)N[C@@H](C)C(=O)N[C@@H](CCCNC(=N)N)C(=O)N[C@H](C(N)=O)C(C)C)[C@@H](C)CC)[C@@H](C)O)[C@@H](C)O)C(=O)O)C(=O)O [Compound 31] (H-IVLSLDVPIGLLQILLEQEKQEKEK([γGlu-γGlu-Palmitoyl])QQATTNARILARV-NH2) | 8.49 |
| CCCCCCCCCCCCCCCC(=O)N[C@@H](CCC(=O)NCCOCCOCC(=O)NCCCC[C@H](NC(=O)[C@H](CCC(=O)O)NC(=O)[C@H](CCCCN)NC(=O)[C@H](CCC(=O)O)NC(=O)[C@H](CCC(N)=O)NC(=O)[C@H](CCCCN)NC(=O)[C@H](CCC(=O)O)NC(=O)[C@H](CCC(N)=O)NC(=O)[C@H](CCC(=O)O)NC(=O)[C@H](CC(C)C)NC(=O)[C@H](CC(C)C)NC(=O)[C@@H](NC(=O)[C@H](CCC(N)=O)NC(=O)[C@H](CC(C)C)NC(=O)[C@H](CC(C)C)NC(=O)CNC(=O)[C@@H](NC(=O)[C@@H]1CCCN1C(=O)[C@@H](NC(=O)[C@H](CC(=O)O)NC(=O)[C@H](CC(C)C)NC(=O)[C@H](CO)NC(=O)[C@H](CC(C)C)NC(=O)[C@@H](NC(=O)[C@@H](N)[C@@H](C)CC)C(C)C)C(C)C)[C@@H](C)CC)[C@@H](C)CC)C(=O)N[C@@H](CCC(N)=O)C(=O)N[C@@H](CCC(N)=O)C(=O)N[C@@H](C)C(=O)N[C@H](C(=O)N[C@H](C(=O)N[C@@H](CC(N)=O)C(=O)N[C@@H](C)C(=O)N[C@@H](CCCNC(=N)N)C(=O)N[C@H](C(=O)N[C@@H](CC(C)C)C(=O)N[C@@H](C)C(=O)N[C@@H](CCCNC(=N)N)C(=O)N[C@H](C(N)=O)C(C)C)[C@@H](C)CC)[C@@H](C)O)[C@@H](C)O)C(=O)O [Compound 32] (H-IVLSLDVPIGLLQILLEQEKQEKEK([AEEA-γGlu-Palmitoyl])QQATTNARILARV-NH2) | 8.04 |
| CCCCCCCCCCCCCCCC(=O)N[C@@H](CCC(=O)NCCCC[C@H](NC(=O)[C@H](CCCCN)NC(=O)[C@H](CCC(=O)O)NC(=O)[C@H](CCCCN)NC(=O)[C@H](CCC(=O)O)NC(=O)[C@H](CCC(N)=O)NC(=O)[C@H](CCCCN)NC(=O)[C@H](CCC(=O)O)NC(=O)[C@H](CCC(N)=O)NC(=O)[C@H](CCC(=O)O)NC(=O)[C@H](CC(C)C)NC(=O)[C@H](CC(C)C)NC(=O)[C@@H](NC(=O)[C@H](CCC(N)=O)NC(=O)[C@H](CC(C)C)NC(=O)[C@H](CC(C)C)NC(=O)CNC(=O)[C@@H](NC(=O)[C@@H]1CCCN1C(=O)[C@@H](NC(=O)[C@H](CC(=O)O)NC(=O)[C@H](CC(C)C)NC(=O)[C@H](CO)NC(=O)[C@H](CC(C)C)NC(=O)[C@@H](NC(=O)[C@@H](N)[C@@H](C)CC)C(C)C)C(C)C)[C@@H](C)CC)[C@@H](C)CC)C(=O)N[C@@H](CCC(N)=O)C(=O)N[C@@H](C)C(=O)N[C@H](C(=O)N[C@H](C(=O)N[C@@H](CC(N)=O)C(=O)N[C@@H](C)C(=O)N[C@@H](CCCNC(=N)N)C(=O)N[C@H](C(=O)N[C@@H](CC(C)C)C(=O)N[C@@H](C)C(=O)N[C@@H](CCCNC(=N)N)C(=O)N[C@H](C(N)=O)C(C)C)[C@@H](C)CC)[C@@H](C)O)[C@@H](C)O)C(=O)O [Compound 33] (H-IVLSLDVPIGLLQILLEQEKQEKEKK([γGlu-Palmitoyl])QATTNARILARV-NH2) | 8.06 |

Now from value to compound:

| pEC50 | Structure (SMILES) |
| --- | --- |
| 8.34 | CCCCCCCCCCCCCCCC(=O)N[C@@H](CCC(=O)N[C@@H](CCC(=O)NCCCC[C@H](NC(=O)[C@H](CCCCN)NC(=O)[C@H](CCC(=O)O)NC(=O)[C@H](CCCCN)NC(=O)[C@H](CCC(=O)O)NC(=O)[C@H](CCC(N)=O)NC(=O)[C@H](CCCCN)NC(=O)[C@H](CCC(=O)O)NC(=O)[C@H](CCC(N)=O)NC(=O)[C@H](CCC(=O)O)NC(=O)[C@H](CC(C)C)NC(=O)[C@H](CC(C)C)NC(=O)[C@@H](NC(=O)[C@H](CCC(N)=O)NC(=O)[C@H](CC(C)C)NC(=O)[C@H](CC(C)C)NC(=O)CNC(=O)[C@@H](NC(=O)[C@@H]1CCCN1C(=O)[C@@H](NC(=O)[C@H](CC(=O)O)NC(=O)[C@H](CC(C)C)NC(=O)[C@H](CO)NC(=O)[C@H](CC(C)C)NC(=O)[C@@H](NC(=O)[C@@H](N)[C@@H](C)CC)C(C)C)C(C)C)[C@@H](C)CC)[C@@H](C)CC)C(=O)N[C@@H](CCC(N)=O)C(=O)N[C@@H](C)C(=O)N[C@H](C(=O)N[C@H](C(=O)N[C@@H](CC(N)=O)C(=O)N[C@@H](C)C(=O)N[C@@H](CCCNC(=N)N)C(=O)N[C@H](C(=O)N[C@@H](CC(C)C)C(=O)N[C@@H](C)C(=O)N[C@@H](CCCNC(=N)N)C(=O)N[C@H](C(N)=O)C(C)C)[C@@H](C)CC)[C@@H](C)O)[C@@H](C)O)C(=O)O)C(=O)O [Compound 34] (H-IVLSLDVPIGLLQILLEQEKQEKEKK([γGlu-γGlu-Palmitoyl])QATTNARILARV-NH2) |
| 6.39 | CCCCCCCCCCCCCCCC(=O)N[C@@H](CCC(=O)NCCCC[C@H](NC(=O)[C@H](CCC(N)=O)NC(=O)[C@H](CCCCN)NC(=O)[C@H](CCC(=O)O)NC(=O)[C@H](CCCCN)NC(=O)[C@H](CCC(=O)O)NC(=O)[C@H](CCC(N)=O)NC(=O)[C@H](CCCCN)NC(=O)[C@H](CCC(=O)O)NC(=O)[C@H](CCC(N)=O)NC(=O)[C@H](CCC(=O)O)NC(=O)[C@H](CC(C)C)NC(=O)[C@H](CC(C)C)NC(=O)[C@@H](NC(=O)[C@H](CCC(N)=O)NC(=O)[C@H](CC(C)C)NC(=O)[C@H](CC(C)C)NC(=O)CNC(=O)[C@@H](NC(=O)[C@@H]1CCCN1C(=O)[C@@H](NC(=O)[C@H](CC(=O)O)NC(=O)[C@H](CC(C)C)NC(=O)[C@H](CO)NC(=O)[C@H](CC(C)C)NC(=O)[C@@H](NC(=O)[C@@H](N)[C@@H](C)CC)C(C)C)C(C)C)[C@@H](C)CC)[C@@H](C)CC)C(=O)N[C@@H](C)C(=O)N[C@H](C(=O)N[C@H](C(=O)N[C@@H](CC(N)=O)C(=O)N[C@@H](C)C(=O)N[C@@H](CCCNC(=N)N)C(=O)N[C@H](C(=O)N[C@@H](CC(C)C)C(=O)N[C@@H](C)C(=O)N[C@@H](CCCNC(=N)N)C(=O)N[C@H](C(N)=O)C(C)C)[C@@H](C)CC)[C@@H](C)O)[C@@H](C)O)C(=O)O [Compound 35] (H-IVLSLDVPIGLLQILLEQEKQEKEKQK([γGlu-Palmitoyl])ATTNARILARV-NH2) |
